Measured values published in PubChem BioAssay (NCI).
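These data come from cells grown in 96-well plates and exposed to compound for 48 hours at five concentrations. The concentration for 50% growth inhibition is given as GI50. TGI: total growth inhibition.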

What was measured:
Assay in all cases: NCI-60 cell line screen, 48 h
ACHN renal = test system: ACHN renal
HCT-15 colon = test system: HCT-15 colon
NCI/ADR-RES ovarian = test system: NCI/ADR-RES ovarian
UO-31 renal = test system: UO-31 renal
786-0 renal = test system: 786-0 renal
A498 renal = test system: A498 renal
A549 NSCLC = test system: A549 NSCLC
BT-549 breast = test system: BT-549 breast
CCRF-CEM leukemia = test system: CCRF-CEM leukemia
COLO 205 colon = test system: COLO 205 colon
EKVX NSCLC = test system: EKVX NSCLC
HCC-2998 colon = test system: HCC-2998 colon
HCT-116 colon = test system: HCT-116 colon
HOP-62 NSCLC = test system: HOP-62 NSCLC
HS 578T breast = test system: HS 578T breast
HT29 colon = test system: HT29 colon
IGROV1 ovarian = test system: IGROV1 ovarian
K-562 leukemia = test system: K-562 leukemia
KM12 colon = test system: KM12 colon
LOX IMVI melanoma = test system: LOX IMVI melanoma
M14 melanoma = test system: M14 melanoma
MCF7 breast = test system: MCF7 breast
MDA-MB-231 breast = test system: MDA-MB-231 breast
MDA-MB-435 = test system: MDA-MB-435
MOLT-4 leukemia = test system: MOLT-4 leukemia
NCI-H226 lung = test system: NCI-H226 lung
NCI-H23 lung = test system: NCI-H23 lung
NCI-H460 lung = test system: NCI-H460 lung
NCI-H522 lung = test system: NCI-H522 lung
OVCAR-3 ovarian = test system: OVCAR-3 ovarian
OVCAR-5 ovarian = test system: OVCAR-5 ovarian
OVCAR-8 ovarian = test system: OVCAR-8 ovarian
PC-3 prostate = test system: PC-3 prostate
RPMI-8226 leukemia = test system: RPMI-8226 leukemia
RXF 393 renal = test system: RXF 393 renal
SF-268 CNS = test system: SF-268 CNS
SF-295 CNS = test system: SF-295 CNS
SF-539 CNS = test system: SF-539 CNS
SK-MEL-2 melanoma = test system: SK-MEL-2 melanoma
SK-MEL-5 melanoma = test system: SK-MEL-5 melanoma
SK-OV-3 ovarian = test system: SK-OV-3 ovarian
SN12C renal = test system: SN12C renal
SNB-19 CNS = test system: SNB-19 CNS
SR leukemia = test system: SR leukemia
SW-620 colon = test system: SW-620 colon
T-47D breast = test system: T-47D breast
TK-10 renal = test system: TK-10 renal
U251 CNS = test system: U251 CNS
UACC-257 melanoma = test system: UACC-257 melanoma
UACC-62 melanoma = test system: UACC-62 melanoma

## COc1cc2c(Nc3ccc(NC(=O)Nc4ccc(Cl)c(C(F)(F)F)c4)c(Cl)c3)ncnc2cc1OCCCN1CCN(C)CC1
ACHN renal
  GI50: 2.24 µM
  TGI: > 100 µM
HCT-15 colon
  GI50: 3.9 µM
  TGI: > 100 µM
NCI/ADR-RES ovarian
  GI50: 54.4 µM
  TGI: > 100 µM
UO-31 renal
  GI50: > 100 µM
  TGI: > 100 µM

## NC(N)=N/N=C/c1c(-c2ccsc2)nc2n1CCS2
786-0 renal
  GI50: 15.4 µM
  TGI: 38.7 µM
A498 renal
  GI50: 64.1 µM
  TGI: > 100 µM
A549 NSCLC
  GI50: 73.7 µM
  TGI: > 100 µM
ACHN renal
  GI50: 18.5 µM
  TGI: 46 µM
BT-549 breast
  GI50: 33.9 µM
  TGI: 78.7 µM
CCRF-CEM leukemia
  GI50: 19.5 µM
  TGI: 54.6 µM
COLO 205 colon
  GI50: 19.8 µM
  TGI: 48.5 µM
EKVX NSCLC
  GI50: 58 µM
  TGI: > 100 µM
HCC-2998 colon
  GI50: 16 µM
  TGI: 31.4 µM
HCT-116 colon
  GI50: 14.3 µM
  TGI: 27.3 µM
HCT-15 colon
  GI50: 24.7 µM
  TGI: 72.7 µM
HOP-62 NSCLC
  GI50: 19.8 µM
  TGI: 52.8 µM
HS 578T breast
  GI50: 34.9 µM
  TGI: > 100 µM
HT29 colon
  GI50: 51 µM
  TGI: > 100 µM
IGROV1 ovarian
  GI50: 48.8 µM
  TGI: > 100 µM
K-562 leukemia
  GI50: 22.2 µM
  TGI: 65.8 µM
KM12 colon
  GI50: 17.1 µM
  TGI: 43.1 µM
LOX IMVI melanoma
  GI50: 16.3 µM
  TGI: 30.6 µM
M14 melanoma
  GI50: 15.1 µM
  TGI: 29.1 µM
MCF7 breast
  GI50: 18 µM
  TGI: 50.2 µM
MDA-MB-231 breast
  GI50: 28.1 µM
  TGI: 82.1 µM
MDA-MB-435
  GI50: 19.8 µM
  TGI: 47.9 µM
MOLT-4 leukemia
  GI50: 15.3 µM
  TGI: 42.9 µM
NCI-H226 lung
  GI50: 13 µM
  TGI: 40.1 µM
NCI-H23 lung
  GI50: 23.8 µM
  TGI: 80 µM
NCI-H460 lung
  GI50: 27.9 µM
  TGI: > 100 µM
NCI-H522 lung
  GI50: 39.3 µM
  TGI: > 100 µM
NCI/ADR-RES ovarian
  GI50: > 100 µM
  TGI: > 100 µM
OVCAR-3 ovarian
  GI50: 0.365 µM
  TGI: 24.1 µM
OVCAR-5 ovarian
  GI50: 19.9 µM
  TGI: 48.2 µM
OVCAR-8 ovarian
  GI50: 49 µM
  TGI: > 100 µM
PC-3 prostate
  GI50: 17.5 µM
  TGI: 39.2 µM
RPMI-8226 leukemia
  GI50: 31.9 µM
  TGI: > 100 µM
RXF 393 renal
  GI50: 30.5 µM
  TGI: > 100 µM
SF-268 CNS
  GI50: 18.4 µM
  TGI: 82.2 µM
SF-295 CNS
  GI50: > 100 µM
  TGI: > 100 µM
SF-539 CNS
  GI50: 14.4 µM
  TGI: 30.3 µM
SK-MEL-2 melanoma
  GI50: 51.9 µM
  TGI: > 100 µM
SK-MEL-5 melanoma
  GI50: 20 µM
  TGI: 41.4 µM
SK-OV-3 ovarian
  GI50: 35.4 µM
  TGI: > 100 µM
SN12C renal
  GI50: 15.5 µM
  TGI: 54.9 µM
SNB-19 CNS
  GI50: 26.9 µM
  TGI: > 100 µM
SR leukemia
  GI50: 12.1 µM
  TGI: 28.8 µM
SW-620 colon
  GI50: 33.2 µM
  TGI: > 100 µM
T-47D breast
  GI50: 30 µM
  TGI: 66.3 µM
TK-10 renal
  GI50: 26 µM
  TGI: 61.1 µM
U251 CNS
  GI50: 14.6 µM
  TGI: 35.7 µM
UACC-257 melanoma
  GI50: 20.8 µM
  TGI: 53.1 µM
UACC-62 melanoma
  GI50: 21.6 µM
  TGI: 69.9 µM
UO-31 renal
  GI50: 65.5 µM
  TGI: > 100 µM
